Results published in patent EP4667483A1, “HUMAN TRANSFERRIN RECEPTOR-BINDING PEPTIDE” (JCR Pharmaceuticals Co., Ltd., priority 2023, dated 2024).
pKd: −log10 of the molar value. Numbered stars: 1 amine (or outer) side, 2 acyl side, 3 side chain; on linkers, the order of the positions; unused ones are H or OH. Bridge positions count the residues as written; N and C are the ends. Square brackets hold non-standard residues; d marks the D form. Peptide text beside a SMILES is read from it. * marks the point of attachment. NMePhe(4-COOH) = CN[C@@H](Cc1ccc(C(=O)O)cc1)C(=O)O; X1 = O=C([C@H](Cc1cccc(C(=O)[*:3])c1)N[*:1])[*:2]; Trp(7-aza) = N[C@@H](Cc1c[nH]c2ncccc12)C(=O)O; NMePhe(3-Cl) = CN[C@@H](Cc1cccc(Cl)c1)C(=O)O; Trp(1-Me) = Cn1cc(C[C@H](N)C(=O)O)c2ccccc21; 3Pal(6-NH2) = Nc1ccc(C[C@H](N)C(=O)O)cn1; NMeW = CN[C@@H](Cc1c[nH]c2ccccc12)C(=O)O; PEG8 = NCCOCCOCCOCCOCCOCCOCCOCCOCCC(=O)O; NMeY = CN[C@@H](Cc1ccc(O)cc1)C(=O)O; Nva(3-Et) = CCC(CC)[C@H](N)C(=O)O; NMeF = CN[C@@H](Cc1ccccc1)C(=O)O; 4Pal = N[C@@H](Cc1ccncc1)C(=O)O; PEG4 = NCCOCCOCCOCCOCCC(=O)O; Carboxymethyl = O=C(O)C*

Experiments:
[1] = target: T1, human transferrin receptor (hTfR) (Homo sapiens, UniProt P02786); test: SPR measurement under pH 7.4 conditions (Biacore T200, CM3 chip, hTfR captured by His Tag antibody); type: binding; settings: SPR, pH 7.4; peptide with the linker named in the table; read-out: hTfR SPR pH7.4 KD
[2] = target: T1, human transferrin receptor (hTfR); test: SPR measurement under pH 6.0 conditions (Biacore T200, NTA chip, immobilized hTfR); type: binding; settings: SPR, pH 6.0; peptide with the linker named in the table; read-out: hTfR SPR pH6.0 KD

T1 sequence (P02786 whole entry): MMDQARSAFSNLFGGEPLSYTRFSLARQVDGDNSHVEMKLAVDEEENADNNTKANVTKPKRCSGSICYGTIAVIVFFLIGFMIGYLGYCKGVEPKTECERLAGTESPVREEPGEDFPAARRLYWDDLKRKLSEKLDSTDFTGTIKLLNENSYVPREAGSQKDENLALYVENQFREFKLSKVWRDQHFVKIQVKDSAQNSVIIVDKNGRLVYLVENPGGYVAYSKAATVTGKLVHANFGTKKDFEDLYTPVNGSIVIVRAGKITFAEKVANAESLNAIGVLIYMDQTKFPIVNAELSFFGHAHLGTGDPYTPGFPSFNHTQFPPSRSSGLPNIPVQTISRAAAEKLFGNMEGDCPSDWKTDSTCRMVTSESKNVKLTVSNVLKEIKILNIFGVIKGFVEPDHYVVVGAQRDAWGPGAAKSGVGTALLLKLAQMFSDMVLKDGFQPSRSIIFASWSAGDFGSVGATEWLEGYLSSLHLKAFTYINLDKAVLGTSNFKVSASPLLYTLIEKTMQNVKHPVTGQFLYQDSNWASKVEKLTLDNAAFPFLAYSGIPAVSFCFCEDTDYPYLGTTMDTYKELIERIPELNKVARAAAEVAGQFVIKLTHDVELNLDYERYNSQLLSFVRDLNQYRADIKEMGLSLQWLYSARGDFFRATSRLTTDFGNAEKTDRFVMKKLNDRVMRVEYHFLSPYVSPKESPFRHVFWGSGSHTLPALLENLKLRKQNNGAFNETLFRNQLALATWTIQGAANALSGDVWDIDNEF

Row | pKd [1] | pKd [2] | Structure (SMILES)
1 | 8.34 | 8.40 | CCC(CC)[C@@H]1NC(=O)[C@H](Cc2ccc(O)cc2)NC(=O)[C@H](Cc2ccc(N)nc2)NC(=O)[C@H](CC(N)=O)NC(=O)[C@H](Cc2c[nH]c3ccccc23)N(C)C(=O)[C@H](C(C)C)NC(=O)[C@H](Cc2cccc(Cl)c2)N(C)C(=O)[C@H](C(C)C)NC(=O)[C@H](C)NC(=O)CSC[C@@H](C(=O)NCCOCCOCCOCCOCCC(N)=O)NC(=O)[C@H](Cc2ccc(O)cc2)N(C)C(=O)[C@H](Cc2ccc(O)cc2)NC(=O)[C@H](CCCNC(=N)N)NC(=O)[C@H](CCCCN)NC(=O)[C@H]([C@@H](C)CC)NC1=O [compound 134] ({CH2CO}-AV[NMePhe(3-Cl)]V[NMeW]N[3Pal(6-NH2)]Y[Nva(3-Et)]IKRY[NMeY]C[PEG4]-NH2; thioether N-15)
2 | 6.97 | 6.28 | CC[C@H](C)[C@@H]1NC(=O)[C@H](Cc2ccc(OCC(=O)O)cc2)NC(=O)[C@H](Cc2ccc(O)cc2)NC(=O)[C@H](CC(N)=O)NC(=O)[C@H](Cc2c[nH]c3ncccc23)NC(=O)[C@H](C(C)C)NC(=O)[C@H](Cc2cccc(Cl)c2)N(C)C(=O)[C@H](C(C)C)NC(=O)[C@H](C)NC(=O)CSC[C@@H](C(=O)NCCOCCOCCOCCOCCC(N)=O)NC(=O)[C@H](Cc2ccc(O)cc2)N(C)C(=O)[C@H](CCC(=O)NCCOCCOCCOCCOCCOCCOCCOCCOCCC(=O)O)NC(=O)[C@H](CCCNC(=N)N)NC(=O)[C@H](CCC(N)=O)NC(=O)[C@H]([C@@H](C)CC)NC1=O [compound 139] ({CH2CO}-AV[NMePhe(3-Cl)]V[Trp(7-aza)]NYY(Carboxymethyl)IIQRE(PEG8)[NMeY]C[PEG4]-NH2; thioether N-15)
3 | 8.25 | 7.66 | CC[C@H](C)[C@@H]1NC(=O)[C@H](Cc2ccc(OCC(=O)O)cc2)NC(=O)[C@H](Cc2ccc(O)cc2)NC(=O)[C@H](CC(N)=O)NC(=O)[C@H](Cc2c[nH]c3ncccc23)NC(=O)[C@H](C(C)C)NC(=O)[C@H](Cc2cccc(Cl)c2)N(C)C(=O)[C@H](C(C)C)NC(=O)[C@H](C)NC(=O)CSC[C@@H](C(=O)NCCOCCOCCOCCOCCC(N)=O)NC(=O)[C@H](Cc2ccc(O)cc2)N(C)C(=O)[C@H](Cc2cccc(C(=O)NCCOCCOCCOCCOCCOCCOCCOCCOCCC(=O)O)c2)NC(=O)[C@H](CCCNC(=N)N)NC(=O)[C@H](CCC(N)=O)NC(=O)[C@H]([C@@H](C)CC)NC1=O [compound 140]
4 | 6.85 | 6.67 | CC[C@H](C)[C@@H]1NC(=O)[C@H](Cc2ccc(OC)cc2)NC(=O)[C@H](Cc2ccc(O)cc2)NC(=O)[C@H](CC(N)=O)NC(=O)[C@H](Cc2c[nH]c3ncccc23)NC(=O)[C@H](C(C)C)NC(=O)[C@H](Cc2cccc(Cl)c2)N(C)C(=O)[C@H](C(C)C)NC(=O)[C@H](C)NC(=O)CSC[C@@H](C(=O)NCCOCCOCCOCCOCCC(N)=O)NC(=O)[C@H](Cc2ccc(O)cc2)N(C)C(=O)[C@H](CCC(=O)NCCOCCOCCOCCOCCOCCOCCOCCOCCC(=O)O)NC(=O)[C@H](CCCNC(=N)N)NC(=O)[C@H](CCC(=O)NCCOCCOCCOCCOCCOCCOCCOCCOCCC(=O)O)NC(=O)[C@H]([C@@H](C)CC)NC1=O [compound 141] ({CH2CO}-AV[NMePhe(3-Cl)]V[Trp(7-aza)]NYY(Me)IIE(PEG8)RE(PEG8)[NMeY]C[PEG4]-NH2; thioether N-15)
5 | 8.67 | 7.75 | CC[C@H](C)[C@@H]1NC(=O)[C@H](Cc2ccc(OC)cc2)NC(=O)[C@H](Cc2ccc(O)cc2)NC(=O)[C@H](CC(N)=O)NC(=O)[C@H](Cc2c[nH]c3ncccc23)NC(=O)[C@H](C(C)C)NC(=O)[C@H](Cc2cccc(Cl)c2)N(C)C(=O)[C@H](C(C)C)NC(=O)[C@H](C)NC(=O)CSC[C@@H](C(=O)NCCOCCOCCOCCOCCC(N)=O)NC(=O)[C@H](Cc2ccc(O)cc2)N(C)C(=O)[C@H](Cc2cccc(C(=O)NCCOCCOCCOCCOCCOCCOCCOCCOCCC(=O)O)c2)NC(=O)[C@H](CCCNC(=N)N)NC(=O)[C@H](CCC(=O)NCCOCCOCCOCCOCCOCCOCCOCCOCCC(=O)O)NC(=O)[C@H]([C@@H](C)CC)NC1=O [compound 142]
6 | 7.23 | 6.57 | CC[C@H](C)[C@@H]1NC(=O)[C@H](Cc2ccc(OCC(=O)O)cc2)NC(=O)[C@H](Cc2ccc(O)cc2)NC(=O)[C@H](CC(N)=O)NC(=O)[C@H](Cc2c[nH]c3ncccc23)NC(=O)[C@H](C(C)C)NC(=O)[C@H](Cc2cccc(Cl)c2)N(C)C(=O)[C@H](C(C)C)NC(=O)[C@H](C)NC(=O)CSC[C@@H](C(=O)NCCOCCOCCOCCOCCC(N)=O)NC(=O)[C@H](Cc2ccc(O)cc2)N(C)C(=O)[C@H](CCC(=O)NCCOCCOCCOCCOCCC(=O)O)NC(=O)[C@H](CCCNC(=N)N)NC(=O)[C@H](CCC(N)=O)NC(=O)[C@H]([C@@H](C)CC)NC1=O [compound 143] ({CH2CO}-AV[NMePhe(3-Cl)]V[Trp(7-aza)]NYY(Carboxymethyl)IIQRE(PEG4)[NMeY]C[PEG4]-NH2; thioether N-15)

The next lines start with the molecule.

Row | Structure (SMILES) | pKd [1] | pKd [2]
7 | CC[C@H](C)[C@@H]1NC(=O)[C@H](Cc2ccc(OCC(=O)O)cc2)NC(=O)[C@H](Cc2ccc(N)nc2)NC(=O)[C@H](CC(N)=O)NC(=O)[C@H](Cc2c[nH]c3ccccc23)NC(=O)[C@H](C(C)C)NC(=O)[C@H](Cc2cccc(Cl)c2)N(C)C(=O)[C@H](C(C)C)NC(=O)[C@H](C)NC(=O)CSC[C@@H](C(=O)NCCOCCOCCOCCOCCC(N)=O)NC(=O)[C@H](Cc2ccc(C(=O)O)cc2)N(C)C(=O)[C@H](Cc2cccc(C(=O)NCCOCCOCCOCCOCCC(=O)O)c2)NC(=O)[C@H](CCCNC(=N)N)NC(=O)[C@H](CCC(N)=O)NC(=O)[C@H]([C@@H](C)CC)NC1=O [compound 116] ({CH2CO}-AV[NMePhe(3-Cl)]VWN[3Pal(6-NH2)]Y(Carboxymethyl)IIQR[X1](PEG4)[NMePhe(4-COOH)]C[PEG4]-NH2; thioether N-15) | 8.07 | 7.45
8 | CCC(CC)[C@@H]1NC(=O)[C@H](Cc2ccc(O)cc2)NC(=O)[C@H](Cc2ccc(O)cc2)NC(=O)[C@H](CC(N)=O)NC(=O)[C@H](Cc2c[nH]c3ccccc23)N(C)C(=O)[C@H](C(C)C)NC(=O)[C@H](Cc2ccccc2)N(C)C(=O)[C@H](C(C)C)NC(=O)[C@H](C)NC(=O)CSC[C@@H](C(=O)NCCOCCOCCOCCOCCC(N)=O)NC(=O)[C@H](Cc2ccc(O)cc2)N(C)C(=O)[C@H](Cc2cccc(C(=O)NCCOCCOCCOCCOCCC(=O)O)c2)NC(=O)[C@H](CCCNC(=N)N)NC(=O)[C@H](CCCCN)NC(=O)[C@H]([C@@H](C)CC)NC1=O [compound 120] ({CH2CO}-AV[NMeF]V[NMeW]NYY[Nva(3-Et)]IKR[X1](PEG4)[NMeY]C[PEG4]-NH2; thioether N-15) | 8.24 | 7.88
9 | CCC(CC)[C@@H]1NC(=O)[C@H](Cc2ccc(O)cc2)NC(=O)[C@H](Cc2ccc(O)cc2)NC(=O)[C@H](CC(N)=O)NC(=O)[C@H](Cc2c[nH]c3ccccc23)N(C)C(=O)[C@H](C(C)C)NC(=O)[C@H](Cc2ccccc2)N(C)C(=O)[C@H](C(C)C)NC(=O)[C@H](C)NC(=O)CSC[C@@H](C(=O)NCCOCCOCCOCCOCCC(N)=O)NC(=O)[C@H](Cc2ccc(C(=O)O)cc2)N(C)C(=O)[C@H](Cc2cccc(C(=O)NCCOCCOCCOCCOCCC(=O)O)c2)NC(=O)[C@H](CCCNC(=N)N)NC(=O)[C@H](CCCCN)NC(=O)[C@H]([C@@H](C)CC)NC1=O [compound 122] ({CH2CO}-AV[NMeF]V[NMeW]NYY[Nva(3-Et)]IKR[X1](PEG4)[NMePhe(4-COOH)]C[PEG4]-NH2; thioether N-15) | 8.28 | 7.82
10 | CCC(CC)[C@@H]1NC(=O)[C@H](Cc2ccc(O)cc2)NC(=O)[C@H](Cc2ccc(O)cc2)NC(=O)[C@H](CC(N)=O)NC(=O)[C@H](Cc2cn(C)c3ccccc23)NC(=O)[C@H](C(C)C)NC(=O)[C@H](Cc2cccc(Cl)c2)N(C)C(=O)[C@H](C(C)C)NC(=O)[C@H](C)NC(=O)CSC[C@@H](C(=O)NCCOCCOCCOCCOCCC(N)=O)NC(=O)[C@H](Cc2ccc(O)cc2)N(C)C(=O)[C@H](Cc2ccncc2)NC(=O)[C@H](CCCNC(=N)N)NC(=O)[C@H](CCCCN)NC(=O)[C@H]([C@@H](C)CC)NC1=O [compound 127] ({CH2CO}-AV[NMePhe(3-Cl)]V[Trp(1-Me)]NYY[Nva(3-Et)]IKR[4Pal][NMeY]C[PEG4]-NH2; thioether N-15) | 8.80 | 8.28
11 | CCC(CC)[C@@H]1NC(=O)[C@H](Cc2ccc(OC)cc2)NC(=O)[C@H](Cc2ccc(O)cc2)NC(=O)[C@H](CC(N)=O)NC(=O)[C@H](Cc2cn(C)c3ccccc23)NC(=O)[C@H](C(C)C)NC(=O)[C@H](Cc2cccc(Cl)c2)N(C)C(=O)[C@H](C(C)C)NC(=O)[C@H](C)NC(=O)CSC[C@@H](C(=O)NCCOCCOCCOCCOCCC(N)=O)NC(=O)[C@H](Cc2ccc(O)cc2)N(C)C(=O)[C@H](Cc2ccncc2)NC(=O)[C@H](CCCNC(=N)N)NC(=O)[C@H](CCCCN)NC(=O)[C@H]([C@@H](C)CC)NC1=O [compound 128] ({CH2CO}-AV[NMePhe(3-Cl)]V[Trp(1-Me)]NYY(Me)[Nva(3-Et)]IKR[4Pal][NMeY]C[PEG4]-NH2; thioether N-15) | 8.96 | 8.49
12 | CC[C@H](C)[C@@H]1NC(=O)[C@H](Cc2ccc(OC)cc2)NC(=O)[C@H](Cc2ccc(O)cc2)NC(=O)[C@H](CC(N)=O)NC(=O)[C@H](Cc2cn(C)c3ccccc23)NC(=O)[C@H](C(C)C)NC(=O)[C@H](Cc2cccc(Cl)c2)N(C)C(=O)[C@H](C(C)C)NC(=O)[C@H](C)NC(=O)CSC[C@@H](C(=O)NCCOCCOCCOCCOCCC(N)=O)NC(=O)[C@H](Cc2ccc(O)cc2)N(C)C(=O)[C@H](Cc2ccncc2)NC(=O)[C@H](CCCNC(=N)N)NC(=O)[C@H](CCCCN)NC(=O)[C@H]([C@@H](C)CC)NC1=O [compound 130] | 9.17 | 8.76
13 | CCC(CC)[C@@H]1NC(=O)[C@H](Cc2ccc(O)cc2)NC(=O)[C@H](Cc2ccc(N)nc2)NC(=O)[C@H](CC(N)=O)NC(=O)[C@H](Cc2c[nH]c3ccccc23)N(C)C(=O)[C@H](C(C)C)NC(=O)[C@H](Cc2ccccc2)N(C)C(=O)[C@H](C(C)C)NC(=O)[C@H](C)NC(=O)CSC[C@@H](C(=O)NCCOCCOCCOCCOCCC(N)=O)NC(=O)[C@H](Cc2ccc(O)cc2)N(C)C(=O)[C@H](Cc2ccc(O)cc2)NC(=O)[C@H](CCCNC(=N)N)NC(=O)[C@H](CCCCN)NC(=O)[C@H]([C@@H](C)CC)NC1=O [compound 133] ({CH2CO}-AV[NMeF]V[NMeW]N[3Pal(6-NH2)]Y[Nva(3-Et)]IKRY[NMeY]C[PEG4]-NH2; thioether N-15) | 7.78 | 7.69
